In ChEMBL document CHEMBL1136415, “3-Acylamino-azetidin-2-one as a novel class of cysteine proteases inhibitors” (Bioorg Med Chem Lett, 2003):

How the values were obtained:
[1] = target: T1, Neutrophil elastase (Homo sapiens, UniProt P08246); assay: Inhibition of human leukocyte elastase(HLE)
T1 sequence (P08246 whole entry): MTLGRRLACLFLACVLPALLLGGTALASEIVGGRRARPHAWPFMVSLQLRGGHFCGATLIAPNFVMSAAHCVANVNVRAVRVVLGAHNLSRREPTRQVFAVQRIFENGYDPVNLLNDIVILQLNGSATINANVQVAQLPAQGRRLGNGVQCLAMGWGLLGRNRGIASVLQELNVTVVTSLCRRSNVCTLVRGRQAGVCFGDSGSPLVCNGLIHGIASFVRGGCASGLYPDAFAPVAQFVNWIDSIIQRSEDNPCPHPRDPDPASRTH

[2] = target: Cathepsin B (Rattus norvegicus, UniProt P00787); assay: Inhibition of recombinant rat Cathepsin B
Chain of Cathepsin B (P00787 whole entry): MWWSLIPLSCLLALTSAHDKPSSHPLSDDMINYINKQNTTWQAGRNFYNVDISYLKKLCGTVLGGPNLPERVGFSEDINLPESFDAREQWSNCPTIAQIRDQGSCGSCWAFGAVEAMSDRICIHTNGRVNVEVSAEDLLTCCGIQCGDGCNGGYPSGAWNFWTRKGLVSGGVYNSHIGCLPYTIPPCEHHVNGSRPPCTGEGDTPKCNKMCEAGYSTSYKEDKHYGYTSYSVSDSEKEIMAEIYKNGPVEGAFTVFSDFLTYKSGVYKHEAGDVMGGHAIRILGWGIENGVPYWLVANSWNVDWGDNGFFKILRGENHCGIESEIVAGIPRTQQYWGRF

[3] = target: Cathepsin S (Homo sapiens, UniProt P25774); assay: Inhibition of recombinant human cathepsin S
Chain of Cathepsin S (P25774 whole entry): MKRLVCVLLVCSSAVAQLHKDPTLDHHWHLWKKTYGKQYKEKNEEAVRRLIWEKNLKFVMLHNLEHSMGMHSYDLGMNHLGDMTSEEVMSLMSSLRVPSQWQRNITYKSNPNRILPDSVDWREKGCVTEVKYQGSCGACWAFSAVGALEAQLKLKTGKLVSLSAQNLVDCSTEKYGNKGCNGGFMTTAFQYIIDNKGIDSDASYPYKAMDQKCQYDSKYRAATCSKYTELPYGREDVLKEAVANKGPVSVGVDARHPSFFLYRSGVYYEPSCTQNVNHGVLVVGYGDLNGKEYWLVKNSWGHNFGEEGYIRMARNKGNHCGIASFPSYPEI

[4] = target: T2, Cathepsin K (Homo sapiens, UniProt P43235); assay: Inhibition of recombinant human Cathepsin K
T2 sequence (P43235 whole entry): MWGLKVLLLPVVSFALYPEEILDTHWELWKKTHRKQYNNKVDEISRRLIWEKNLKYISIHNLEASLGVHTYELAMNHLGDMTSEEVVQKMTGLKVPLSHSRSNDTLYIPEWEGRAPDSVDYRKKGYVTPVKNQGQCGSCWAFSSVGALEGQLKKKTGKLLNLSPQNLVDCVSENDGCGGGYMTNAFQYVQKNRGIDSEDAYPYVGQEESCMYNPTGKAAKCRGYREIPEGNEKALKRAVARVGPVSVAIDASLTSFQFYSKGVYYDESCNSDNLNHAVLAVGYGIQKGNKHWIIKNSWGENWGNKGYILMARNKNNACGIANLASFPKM

[5] = target: Procathepsin L (Homo sapiens, UniProt P07711); assay: Inhibition of recombinant human Cathepsin L
Chain of Procathepsin L (P07711 whole entry): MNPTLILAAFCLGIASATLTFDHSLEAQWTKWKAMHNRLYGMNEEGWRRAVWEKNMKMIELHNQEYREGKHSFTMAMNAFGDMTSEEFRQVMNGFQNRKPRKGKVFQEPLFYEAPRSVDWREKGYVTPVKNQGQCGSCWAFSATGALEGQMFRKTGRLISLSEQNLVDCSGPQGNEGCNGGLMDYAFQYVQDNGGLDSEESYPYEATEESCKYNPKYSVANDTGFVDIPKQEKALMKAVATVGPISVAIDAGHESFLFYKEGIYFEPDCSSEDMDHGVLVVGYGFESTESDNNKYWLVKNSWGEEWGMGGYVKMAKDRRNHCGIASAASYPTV

Row | SMILES | IC50 [1] [nM] | IC50 [2] [nM] | IC50 [3] [nM] | IC50 [4] [nM] | IC50 [5] [nM]
1 | O=C(N[C@@H](Cc1ccccc1)C(=O)N[C@@H]1C(=O)N[C@H]1Oc1ccccc1)OCc1ccccc1 | > 30000 | 10900 | 330 | 100 | –
2 | O=C(N[C@@H](Cc1ccccc1)C(=O)N[C@@H]1C(=O)N[C@H]1Sc1ccccc1)OCc1ccccc1 | > 50000 | 10500 | 330 | 8.4 | 0.1
3 | O=C(N[C@@H](Cc1ccccc1)C(=O)N[C@@H]1C(=O)N[C@H]1OCc1ccccc1)OCc1ccccc1 | > 50000 | 32600 | > 2500 | 2500 | 3960
4 | O=C(N[C@@H](Cc1ccccc1)C(=O)N[C@@H]1C(=O)N[C@@H]1Oc1ccccc1)OCc1ccccc1 | > 30000 | 430 | – | 16 | –
5 | O=C(N[C@@H](Cc1ccccc1)C(=O)N[C@H]1CNC1=O)OCc1ccccc1 | > 50000 | 2700 | – | – | –
6 | CC(C)CO[C@@H]1NC(=O)[C@H]1NC(=O)[C@H](Cc1ccccc1)NC(=O)OCc1ccccc1 | > 50000 | 6460 | > 2500 | 2300 | 91
7 | O=C(N[C@@H](Cc1ccccc1)C(=O)N[C@@H]1C(=O)N[C@H]1OC(=O)c1ccccc1)OCc1ccccc1 | > 50000 | 27500 | 20 | 100 | 166
8 | O=C(N[C@@H](Cc1ccccc1)C(=O)N[C@@H]1C(=O)N[C@@H]1Sc1ccccc1)OCc1ccccc1 | > 50000 | 39700 | 2500 | 72 | 15
9 | O=C(CCc1ccccc1)O[C@@H]1NC(=O)[C@H]1NC(=O)[C@H](Cc1ccccc1)NC(=O)OCc1ccccc1 | > 50000 | 9710 | 41 | 38 | 47
10 | CC(=O)O[C@@H]1NC(=O)[C@H]1NC(=O)[C@H](Cc1ccccc1)NC(=O)OCc1ccccc1 | > 10000 | 470 | 207 | 100 | 42
11 | O=C(N[C@@H](Cc1ccccc1)C(=O)N[C@@H]1CNC1=O)OCc1ccccc1 | > 50000 | 13600 | > 5000 | > 5000 | 37400
12 | O=C(N[C@@H](Cc1ccccc1)C(=O)N[C@@H]1C(=O)N[C@H]1S(=O)(=O)c1ccccc1)OCc1ccccc1 | > 50000 | – | 48 | 6.5 | 0.1
13 | CC(C)(C)O[C@@H]1NC(=O)[C@H]1NC(=O)[C@H](Cc1ccccc1)NC(=O)OCc1ccccc1 | > 50000 | 11400 | > 2500 | 2500 | 780
14 | CCCCO[C@@H]1NC(=O)[C@H]1NC(=O)[C@H](Cc1ccccc1)NC(=O)OCc1ccccc1 | > 50000 | 7010 | 355 | 100 | 163
